Experimental data published in patent publication US12448369B2 (Edgewise Therapeutics, Inc., priority 2023, dated 2025).

What was measured:
[1] = molecular target: T1, Porcine ventricle myofibrils (ventricular myosin ATPase) (Sus scrofa, UniProt P79293); experiment: Myofibril ATPase assay, porcine ventricle myofibrils; format: biochemical, porcine (Yucatan minipigs); details: porcine ventricle myofibrils
T1 construct: Myofibrils from porcine cardiac muscle was isolated from the left ventricle of Yucatan minipigs; tissue Exemplar Genetics; host or cells: left ventricle of Yucatan minipigs, myofibrils prepared in house
T1 sequence (P79293 whole entry): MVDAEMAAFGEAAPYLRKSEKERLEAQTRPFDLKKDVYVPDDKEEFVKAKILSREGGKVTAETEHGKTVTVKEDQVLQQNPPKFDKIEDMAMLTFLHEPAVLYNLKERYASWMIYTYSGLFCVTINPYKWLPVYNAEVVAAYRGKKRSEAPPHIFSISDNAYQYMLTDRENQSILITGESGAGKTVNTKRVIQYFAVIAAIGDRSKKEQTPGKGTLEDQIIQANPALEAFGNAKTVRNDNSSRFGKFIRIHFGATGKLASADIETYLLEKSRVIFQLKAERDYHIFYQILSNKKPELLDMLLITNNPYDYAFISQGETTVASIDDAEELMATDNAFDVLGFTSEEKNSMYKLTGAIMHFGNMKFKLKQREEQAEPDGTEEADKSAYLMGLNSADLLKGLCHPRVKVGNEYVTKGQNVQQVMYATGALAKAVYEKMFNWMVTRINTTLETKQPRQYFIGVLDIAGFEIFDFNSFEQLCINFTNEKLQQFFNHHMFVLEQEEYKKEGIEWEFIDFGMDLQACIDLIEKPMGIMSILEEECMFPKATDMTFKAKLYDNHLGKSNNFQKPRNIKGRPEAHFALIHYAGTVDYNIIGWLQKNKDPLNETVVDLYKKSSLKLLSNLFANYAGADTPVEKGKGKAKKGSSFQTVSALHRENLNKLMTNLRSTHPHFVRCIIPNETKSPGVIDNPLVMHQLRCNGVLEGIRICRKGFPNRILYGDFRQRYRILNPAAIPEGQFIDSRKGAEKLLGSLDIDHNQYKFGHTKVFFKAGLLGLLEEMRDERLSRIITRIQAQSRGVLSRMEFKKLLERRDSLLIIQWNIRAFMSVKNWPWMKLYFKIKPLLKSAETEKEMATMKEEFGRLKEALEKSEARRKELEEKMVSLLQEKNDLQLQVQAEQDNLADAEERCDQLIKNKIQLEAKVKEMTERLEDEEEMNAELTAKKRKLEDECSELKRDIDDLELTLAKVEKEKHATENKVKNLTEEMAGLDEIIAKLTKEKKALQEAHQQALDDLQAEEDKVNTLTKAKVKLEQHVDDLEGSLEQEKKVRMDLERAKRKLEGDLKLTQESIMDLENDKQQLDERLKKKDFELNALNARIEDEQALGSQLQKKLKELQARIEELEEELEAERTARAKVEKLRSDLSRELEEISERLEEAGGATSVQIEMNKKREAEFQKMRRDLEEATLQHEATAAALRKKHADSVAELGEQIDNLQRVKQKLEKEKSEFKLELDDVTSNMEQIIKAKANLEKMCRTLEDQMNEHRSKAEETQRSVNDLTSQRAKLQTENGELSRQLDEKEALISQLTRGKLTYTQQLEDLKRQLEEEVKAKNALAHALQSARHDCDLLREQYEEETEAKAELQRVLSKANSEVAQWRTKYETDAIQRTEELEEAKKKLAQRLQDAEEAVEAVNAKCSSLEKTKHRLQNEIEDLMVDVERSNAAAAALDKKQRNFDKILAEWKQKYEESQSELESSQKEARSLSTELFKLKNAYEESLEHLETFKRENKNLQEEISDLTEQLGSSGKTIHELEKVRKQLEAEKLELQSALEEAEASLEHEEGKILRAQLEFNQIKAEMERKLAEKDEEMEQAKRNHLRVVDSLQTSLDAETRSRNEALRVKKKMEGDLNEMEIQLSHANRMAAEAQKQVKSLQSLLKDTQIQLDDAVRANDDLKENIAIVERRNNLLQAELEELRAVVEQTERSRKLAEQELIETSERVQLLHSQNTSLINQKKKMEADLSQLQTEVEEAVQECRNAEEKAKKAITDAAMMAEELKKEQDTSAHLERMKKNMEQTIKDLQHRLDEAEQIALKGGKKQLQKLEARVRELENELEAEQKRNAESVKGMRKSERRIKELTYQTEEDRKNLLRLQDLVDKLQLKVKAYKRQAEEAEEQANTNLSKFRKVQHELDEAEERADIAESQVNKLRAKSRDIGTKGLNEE
Outline: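 ATPase activity of porcine left-ventricle myofibrils (Yucatan minipig) was followed through PK-LDH coupling as NADH loss at 340 nm, read every 1.5-2 min for 75 min. Slopes were normalised to vehicle wells and fitted to a 4-parameter logistic model. Values are Y75, the concentration giving a 25% drop in activity, or Y125 for activators.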

[2] = tested on: Porcine atria myofibrils (atrial myosin ATPase); experiment: Myofibril ATPase assay, porcine atria myofibrils; format: biochemical; details: porcine atria myofibrils
Outline: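 Y75 (25% inhibition) or Y125 (activation) values come from 4-parameter logistic fits of vehicle-normalized rates. Rates are linear-regression slopes of NADH absorbance at 340 nm, read kinetically over 75 min, with ADP coupled to NADH oxidation via pyruvate kinase/lactate dehydrogenase.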

[3] = tested on: Rabbit Psoas myofibrils (skeletal myosin ATPase); experiment: Myofibril ATPase assay, rabbit psoas (skeletal) myofibrils; format: biochemical; details: rabbit psoas myofibrils
Outline: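 Values are concentrations giving 75% (Y75) or 125% (Y125) of vehicle ATPase activity, from 4-parameter logistic fits of normalized rates. Rates came from linear regression of A340 over 75 min, NADH oxidation coupled to ADP via PK-LDH. Enzyme source: skeletal myofibrils from rabbit psoas, pH 7.0 pCa buffer.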

[4] = Y75 value (75% activity relative to no compound)

Compound	Ventricular EC25 ([1]; Y75 value) [µM]	Atrial EC25 [2, 4] [µM]	Skeletal EC25 ([3]; Y75 value) [µM]	Ventricular EC25 ([1]; Y75 value (no ‡ mark)) [µM]	Atrial EC25 ([2]; Y75 value (no ‡ mark)) [µM]	Skeletal EC25 ([3]; Y75 value (no ‡ mark)) [µM]
Cc1c(CC(=O)N[C@H](C)c2ncc(C#N)cc2F)c(=O)[nH]c2ccnc(C(F)(F)F)c12 (single isomer, unassigned) [compound 226]	100.00	7.58	0.27			
COC[C@H](NC(=O)Cc1c(C)c2c(C)nccc2[nH]c1=O)c1ccc(C#N)cc1F [compound 169]	10.52	1.06	0.15			
C[C@H](NC(=O)C1(c2cc3c(F)c(F)ccc3[nH]c2=O)CC1)c1ncc(C#N)cc1F (single isomer, unassigned) [compound 2593]				1.00	0.19	1.15
C[C@@H](NC(=O)C1(c2cc3c(F)c(F)ccc3[nH]c2=O)CC1)c1cc(C#N)ccn1 (single isomer, unassigned) [compound 2583]				100.00	4.31	100.00
CC(NC(=O)C1(c2cc3c(F)c(F)ccc3[nH]c2=O)CC1)c1cccc(C#N)n1 (single isomer, unassigned) [Compound 2569]				100.00	4.84	100.00
C[C@H](NC(=O)Cc1cc2c(F)c(F)ccc2[nH]c1=O)c1ncc(C#N)cn1 (single isomer, unassigned) [compound 2072]				11.13	0.68	0.35
Cc1c(CC(=O)N[C@H](C)c2ncc(C#N)cn2)c(=O)[nH]c2ccc(C#N)cc12 (single isomer, unassigned) [compound 2027]				100.00	1.48	41.80
Cc1c(C(F)(F)C(=O)N[C@@H](C)c2ncc(F)cc2F)c(=O)[nH]c2ccc(F)cc12 (single isomer, unassigned) [compound 4820]				0.61	0.12	0.11
Cc1c(CC(=O)N[C@@H](CO)c2ncc(F)cc2F)c(=O)[nH]c2ccc(C#N)nc12 [compound 260]	100.00	2.40	33.76			
Cc1c(C(F)(F)C(=O)N[C@@H](C)c2ccc(C#N)nn2)c(=O)[nH]c2ccc(F)cc12 (single isomer, unassigned) [compound 2556]				16.01	6.56	5.17
C[C@H](NC(=O)Cc1cc2c(C(F)(F)F)c(F)ccc2[nH]c1=O)c1ncc(C#N)cn1 (single isomer, unassigned) [compound 2010]				3.45	1.25	0.66
Cc1c(CC(=O)N[C@@H](C)c2ccc(F)cc2F)c(=O)[nH]c2ccc(Br)cc12 [compound 120]				0.25	0.04	0.05
Cc1cccc([C@@H](CO)NC(=O)Cc2c(C)c3c(C)nccc3[nH]c2=O)c1 (single isomer, unassigned) [compound 294]	100.00	100.00	100.00			
Cc1nccc2[nH]c(=O)c(CC(=O)N[C@H](C)c3ccncc3)c(C)c12 (single isomer, unassigned) [compound 333]	100.00	100.00	100.00			
N#Cc1ccc([C@H](CO)NC(=O)Cc2c(C3CC3)c3cc(F)ccc3[nH]c2=O)c(F)c1 [compound 76]				100.00	100.00	100.00
Cc1c(C2(C(=O)N[C@H]3CCc4cc(C#N)cnc43)CC2)c(=O)[nH]c2ccc(F)c(F)c12 (single isomer, unassigned) [compound 4804]				100.00	4.71	100.00

Compound	Ventricular EC25 ([1]; Y75 value) [µM]	Atrial EC25 [2, 4] [µM]	Skeletal EC25 ([3]; Y75 value) [µM]	Ventricular EC25 ([1]; Y75 value (no ‡ mark)) [µM]	Atrial EC25 ([2]; Y75 value (no ‡ mark)) [µM]	Skeletal EC25 ([3]; Y75 value (no ‡ mark)) [µM]
Cc1c(F)ccc2[nH]c(=O)c(CC(=O)N[C@H](C)c3ncc(F)cc3F)c(C#N)c12 [compound 1147]				0.94	2.84	1.01
Cc1c(CC(=O)N[C@@H](C)c2ncc(F)cc2F)c(=O)[nH]c2ccc(C#N)nc12 (single isomer, unassigned) [compound 250]	80.59	2.60	16.64			
Cc1c([C@@H](C)C(=O)N[C@@H](C)c2ccc(F)cc2F)c(=O)[nH]c2ccnc(F)c12 (single isomer, unassigned) [compound 376]	1.33	0.16	0.03			
C[C@H](NC(=O)Cc1cc2cc(F)c(F)cc2[nH]c1=O)c1ncc(C#N)cc1F (single isomer, unassigned) [compound 4]				0.96	4.38	0.15
Cc1c(CC(=O)N[C@@H](C)c2ncc(C#N)cc2F)c(=O)[nH]c2ccnc(C(F)(F)F)c12 (single isomer, unassigned) [compound 227]	0.62	0.09	0.07			
Cc1c(C(F)(F)C(=O)N[C@H](C)c2cc(C#N)ccn2)c(=O)[nH]c2ccc(F)c(F)c12 (single isomer, unassigned) [compound 2585]				7.05	1.59	3.04
Cc1c(CC(=O)N[C@H](C)c2ncc(F)cc2F)c(=O)[nH]c2ccnc(C(F)(F)F)c12 (single isomer, unassigned) [compound 265]	100.00	100.00	3.86			
Cc1nccc2[nH]c(=O)c(CC(=O)N[C@@H]3CCc4cc(C#N)cc(F)c43)c(C)c12 (single isomer, unassigned) [compound 197]	49.43	2.80	4.23			
Cc1nncc2[nH]c(=O)c(CC(=O)N[C@H](C)c3ncc(C#N)cc3F)cc12 [compound 451]	100.00	100.00	100.00			
C[C@H](NC(=O)[C@@H](C)c1cc2nc(C#N)ccc2[nH]c1=O)c1ccc(F)cc1F (single isomer, unassigned) [compound 258]	63.55	100.00	100.00			
Cc1c(C(F)(F)C(=O)N[C@@H](C)c2ncc(C#N)cc2F)c(=O)[nH]c2cccc(F)c12 (single isomer, unassigned) [compound 2533]				0.13	0.13	0.06
Cc1cnncc1[C@@H](C)NC(=O)Cc1c(C)c2c(C)nccc2[nH]c1=O [compound 480]	100.00	100.00	33.82			
Cc1c([C@H](C)C(=O)N[C@@H](C)c2ccc(F)cc2F)c(=O)[nH]c2ccnc(F)c12 (single isomer, unassigned) [compound 375]	4.58	0.27	0.17			
Cc1c(C2(C(=O)N[C@@H](C)c3ncc(C#N)cc3F)CC2)c(=O)[nH]c2ccc(F)c(C#N)c12 (single isomer, unassigned) [compound 2524]				0.31	0.16	0.13
Cc1c(F)ccc2[nH]c(=O)c(CC(=O)N[C@@H](C)c3ccc(C#N)cc3F)c(O)c12 [compound 20]				0.31	0.21	0.51
Cc1ccncc1[C@@H](C)NC(=O)Cc1c(C)c2cc(F)ccc2[nH]c1=O [compound 1048]				1.73	0.29	2.2
